The values that follow come from patent US9822103B2, “Inhibitors of lysine methyl transferase” (priority 2013, dated 2017).

pIC50: −log10 of the molar value.

In the experiment the target is recombinant EZH2-641F complex (EZH2 Y641F/EED/SUZ12/RbAp48/AEBP2) (Homo sapiens (Human), UniProt Q15910, Y641F). In words: EZH2 Histone Methyl Transferase Assay (scintillation proximity assay). Format: biochemical. Conditions: 350 nM histone peptide substrate, 500 nM 3H-SAM, 3 hours room temperature. How it is done: EZH2 Histone Methyl Transferase Assay
Chain of recombinant EZH2-641F complex (EZH2 Y641F/EED/SUZ12/RbAp48/AEBP2) (Q15910 whole entry Y641F): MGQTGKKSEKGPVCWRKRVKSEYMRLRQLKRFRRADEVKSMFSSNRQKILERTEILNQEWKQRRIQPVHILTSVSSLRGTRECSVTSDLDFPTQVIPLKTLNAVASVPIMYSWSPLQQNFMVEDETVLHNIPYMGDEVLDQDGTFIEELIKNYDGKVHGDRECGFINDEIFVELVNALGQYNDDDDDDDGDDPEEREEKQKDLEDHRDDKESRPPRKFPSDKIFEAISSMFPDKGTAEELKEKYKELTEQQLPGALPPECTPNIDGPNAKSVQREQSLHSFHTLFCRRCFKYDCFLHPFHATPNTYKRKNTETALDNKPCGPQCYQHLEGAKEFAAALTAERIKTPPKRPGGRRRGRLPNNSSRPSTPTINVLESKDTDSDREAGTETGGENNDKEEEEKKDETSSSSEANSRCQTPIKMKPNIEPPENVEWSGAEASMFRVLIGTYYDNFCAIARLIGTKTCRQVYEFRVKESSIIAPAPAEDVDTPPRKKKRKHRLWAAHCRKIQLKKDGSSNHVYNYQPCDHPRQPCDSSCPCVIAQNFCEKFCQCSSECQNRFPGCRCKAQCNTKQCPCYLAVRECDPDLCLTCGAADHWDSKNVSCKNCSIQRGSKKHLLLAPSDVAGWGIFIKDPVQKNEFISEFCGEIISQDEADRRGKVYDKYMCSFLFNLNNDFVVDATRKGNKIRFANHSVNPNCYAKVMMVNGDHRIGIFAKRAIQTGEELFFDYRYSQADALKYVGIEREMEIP
Chain of recombinant EZH2-641F complex (EZH2 Y641F/EED/SUZ12/RbAp48/AEBP2) (O75530 whole entry partner): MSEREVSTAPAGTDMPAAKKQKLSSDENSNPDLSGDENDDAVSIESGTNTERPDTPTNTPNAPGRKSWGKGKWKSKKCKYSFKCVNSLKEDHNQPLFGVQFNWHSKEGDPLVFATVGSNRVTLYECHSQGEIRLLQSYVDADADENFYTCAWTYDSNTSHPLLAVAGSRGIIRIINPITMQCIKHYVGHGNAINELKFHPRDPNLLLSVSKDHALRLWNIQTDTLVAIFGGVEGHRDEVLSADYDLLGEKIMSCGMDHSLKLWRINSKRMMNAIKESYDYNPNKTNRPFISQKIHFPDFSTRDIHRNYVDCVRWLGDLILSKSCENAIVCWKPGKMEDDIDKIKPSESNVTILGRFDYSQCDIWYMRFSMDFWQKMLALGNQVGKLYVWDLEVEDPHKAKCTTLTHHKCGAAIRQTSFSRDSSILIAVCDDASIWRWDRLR
Chain of recombinant EZH2-641F complex (EZH2 Y641F/EED/SUZ12/RbAp48/AEBP2) (Q15022 whole entry partner): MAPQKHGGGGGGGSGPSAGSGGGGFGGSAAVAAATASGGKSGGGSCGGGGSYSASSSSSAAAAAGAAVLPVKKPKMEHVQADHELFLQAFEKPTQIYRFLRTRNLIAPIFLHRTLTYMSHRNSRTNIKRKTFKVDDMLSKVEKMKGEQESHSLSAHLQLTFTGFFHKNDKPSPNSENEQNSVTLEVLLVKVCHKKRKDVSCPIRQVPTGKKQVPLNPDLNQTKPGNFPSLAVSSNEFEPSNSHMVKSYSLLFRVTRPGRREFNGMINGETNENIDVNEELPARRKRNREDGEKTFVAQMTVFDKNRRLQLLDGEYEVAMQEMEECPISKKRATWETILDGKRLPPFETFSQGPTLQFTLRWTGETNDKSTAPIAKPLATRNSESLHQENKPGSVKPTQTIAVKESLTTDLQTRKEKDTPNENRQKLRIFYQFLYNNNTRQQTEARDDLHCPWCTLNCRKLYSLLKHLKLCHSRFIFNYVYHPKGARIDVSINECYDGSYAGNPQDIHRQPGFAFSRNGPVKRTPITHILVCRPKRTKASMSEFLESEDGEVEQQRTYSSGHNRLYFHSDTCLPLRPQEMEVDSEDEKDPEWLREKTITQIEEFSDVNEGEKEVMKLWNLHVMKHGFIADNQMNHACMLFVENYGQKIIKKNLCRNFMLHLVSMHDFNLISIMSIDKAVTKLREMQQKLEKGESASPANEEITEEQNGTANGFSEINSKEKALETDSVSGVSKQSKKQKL
Chain of recombinant EZH2-641F complex (EZH2 Y641F/EED/SUZ12/RbAp48/AEBP2) (Q09028 whole entry partner): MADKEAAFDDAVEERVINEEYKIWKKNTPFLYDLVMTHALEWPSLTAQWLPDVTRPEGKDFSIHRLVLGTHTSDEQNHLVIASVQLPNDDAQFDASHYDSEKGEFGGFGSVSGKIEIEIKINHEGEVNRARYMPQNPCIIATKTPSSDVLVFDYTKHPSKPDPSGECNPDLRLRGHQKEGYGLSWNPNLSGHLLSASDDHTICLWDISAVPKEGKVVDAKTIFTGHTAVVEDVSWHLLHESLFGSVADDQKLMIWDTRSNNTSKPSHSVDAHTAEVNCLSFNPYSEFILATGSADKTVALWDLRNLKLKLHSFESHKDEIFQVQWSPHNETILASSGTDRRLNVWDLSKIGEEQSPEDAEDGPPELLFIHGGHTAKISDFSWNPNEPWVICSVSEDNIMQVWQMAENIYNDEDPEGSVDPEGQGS
Chain of recombinant EZH2-641F complex (EZH2 Y641F/EED/SUZ12/RbAp48/AEBP2) (Q6ZN18 whole entry partner): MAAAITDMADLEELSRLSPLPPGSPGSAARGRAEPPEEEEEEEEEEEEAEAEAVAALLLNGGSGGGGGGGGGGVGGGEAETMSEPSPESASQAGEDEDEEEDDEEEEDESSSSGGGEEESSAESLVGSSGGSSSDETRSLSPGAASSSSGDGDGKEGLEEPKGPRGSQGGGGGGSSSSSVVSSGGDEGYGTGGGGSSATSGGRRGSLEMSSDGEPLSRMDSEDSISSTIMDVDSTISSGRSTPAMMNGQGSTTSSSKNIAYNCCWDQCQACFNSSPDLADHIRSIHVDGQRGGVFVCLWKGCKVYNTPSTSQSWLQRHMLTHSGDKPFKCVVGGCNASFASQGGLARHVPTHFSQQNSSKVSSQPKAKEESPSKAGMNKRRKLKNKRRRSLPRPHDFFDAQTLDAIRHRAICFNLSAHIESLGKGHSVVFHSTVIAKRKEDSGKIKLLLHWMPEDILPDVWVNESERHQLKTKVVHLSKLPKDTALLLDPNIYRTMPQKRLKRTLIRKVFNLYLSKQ
The effectiveness of compounds of the present invention as inhibitors of histone methyl transferases can be readily tested by assays known to those skilled in the art. For example, in vitro histone methyl transferase assays may be conducted with a relevant purified histone methyl transferase and an appropriate synthetic substrate to determine the inhibitory activity of the compounds. Assays for inhibition of EZH2 by the instant compounds were performed in 384-well plates with reaction mixtures containing 350 nM of histone peptide substrate (ATKAAR-K(Me2)-SAPATGGVKKPHRYRPG-GK(Biotin), 500 nM S-[methyl-^3H]adenosyl-L-methionine (55-85 Ci/mmol), 50 mM Tris-HCl (pH 9.0), 50 mM NaCl, 1 mM dithiothreitol, Tween-20 at 0.01% and fatty-acid free bovine serum albumin at 0.01%, and recombinant EZH2-641F complex (EZH2 Y641F/EED/SUZ12/RbAp48/AEBP2) at 5 nM (>98% purity, BPS Bioscience) or 15 nM (50% purity, in-house). Reaction mixtures were incubated at room temperature for 3 hours, and the reactions were terminated by 0.005% poly-L-lysine solution in 20 mM Tris-HCl (pH 7.5) and 150 mM NaCl. Reaction products were captured by binding to strepavidin-conjugated imaging beads. Incorporation of radioactive methyl group into the histone peptide substrate was determined in Leadseeker (GE Healthcare) by means of scintillation proximity assay. Dose response curves were generated to determine the concentration required to inhibit 50% of methyl transferase activity (EC50). Compounds were dissolved at 10 mM in dimethylsulfoxide (DMSO) and evaluated at eleven concentrations. EC50 values were derived by non-linear regression analysis.
A general note: In a scintillation proximity assay essentially only radioactivity close to the scintillant gives light.
As for `Cc1cc(C)c(CNC(=O)c2cc(Br)c3c(c2)[C@@H](C)[C@H](C)O3)c(=O)[nH]1` (racemic) [Example 40, rac-(2S,3R)-7-bromo-N-((4,6-dimethyl-2-oxo-1,2-dihydropyridin-3-yl)methyl)-2,3-dimethyl-2,3-dihydrobenzofuran-5-carboxamide], the pIC50 is less than 6.00.

For the molecule `Cc1cc(C)c(CNC(=O)c2cc(Br)c3c(c2)[C@@H]2CCC[C@]2(C)O3)c(=O)[nH]1` (racemic) [Example 64, rac-(3aS,8bS)-5-Bromo-N-((4,6-dimethyl-2-oxo-1,2-dihydropyridin-3-yl)methyl)-3a-methyl-2,3,3a,8b-tetrahydro-1H-cyclopenta[b]benzofuran-7-carboxamide], the pIC50 is less than 6.00.

In the case of `Cc1cc(C)c(CNC(=O)c2cc(-c3ccc(N4CCNCC4)nc3)c3c(c2)[C@@H]2CCC[C@]2(C)O3)c(=O)[nH]1` (racemic) [Example 65, rac-(3aS,8bS)—N-((4,6-Dimethyl-2-oxo-1,2-dihydropyridin-3-yl)methyl)-3a-methyl-5-(6-(piperazin-1-yl)pyridin-3-yl)-2,3,3a,8b-tetrahydro-1H-cyclopenta[b]benzofuran-7-carboxamide], the pIC50 was more than 6.30.

On to `COc1ccc(-c2cc(C(=O)NCc3c(C)cc(C)[nH]c3=O)cc3c2O[C@@]2(C)CCC[C@@H]32)cn1` (racemic) [Example 66, rac-(3aS,8bS)—N-((4,6-Dimethyl-2-oxo-1,2-dihydropyridin-3-yl)methyl)-5-(6-methoxypyridin-3-yl)-3a-methyl-2,3,3a,8b-tetrahydro-1H-cyclopenta[b]benzofuran-7-carboxamide], for which the negative logarithm of the IC50 (pIC50) was 6.00 to 6.30.

Consider `Cc1cc(C)c(CNC(=O)c2cc(-c3ccc(CN4CCCCC4)cc3)c3c(c2)[C@@H]2CCC[C@]2(C)O3)c(=O)[nH]1` (racemic) [Example 67, rac-(3aS,8bS)—N-((4,6-Dimethyl-2-oxo-1,2-dihydropyridin-3-yl)methyl)-3a-methyl-5-(4-(piperidin-1-ylmethyl)phenyl)-2,3,3a,8b-tetrahydro-1H-cyclopenta[b]benzofuran-7-carboxamide], for which the pIC50 is 6.00 to 6.30.

Regarding `Cc1cc(C)c(CNC(=O)c2cc(-c3ccc(N4CCNCC4)cc3)c3c(c2)[C@@H]2CCC[C@]2(C)O3)c(=O)[nH]1` (racemic) [Example 68, rac-(3aS,8bS)—N-((4,6-Dimethyl-2-oxo-1,2-dihydropyridin-3-yl)methyl)-3a-methyl-5-(4-(piperazin-1-yl)phenyl)-2,3,3a,8b-tetrahydro-1H-cyclopenta[b]benzofuran-7-carboxamide], the pIC50 was 6.00 to 6.30.

With `Cc1cc(C)c(CNC(=O)c2cc3c(c(Br)c2C)O[C@@]2(C)CCC[C@@H]32)c(=O)[nH]1` (racemic) [Example 69, rac-(3aS,8bS)-5-Bromo-N-((4,6-dimethyl-2-oxo-1,2-dihydropyridin-3-yl)methyl)-3a,6-dimethyl-2,3,3a,8b-tetrahydro-1H-cyclopenta[b]benzofuran-7-carboxamide], the pIC50 was more than 6.30.

On to `Cc1cc(C)c(CNC(=O)c2cc(Br)c3c(c2)CC(C)(C)O3)c(=O)[nH]1` [Example 1, 7-Bromo-N-((4,6-dimethyl-2-oxo-1,2-dihydropyridin-3-yl)methyl)-2,2-dimethyl-2,3-dihydrobenzofuran-5-carboxamide], for which the pIC50 was more than 6.30.

Take `Cc1cc(C)c(CNC(=O)c2ccc3c(c2)CC(C)(C)O3)c(=O)[nH]1` [Example 2, N-((4,6-Dimethyl-2-oxo-1,2-dihydropyridin-3-yl)methyl)-2,2-dimethyl-2,3-dihydrobenzofuran-5-carboxamide]: the pIC50 was less than 6.00.

With `Cc1cc(C)c(CNC(=O)c2cc(Cl)c3c(c2)CC(C)(C)O3)c(=O)[nH]1` [Example 3, 7-Chloro-N-((4,6-dimethyl-2-oxo-1,2-dihydropyridin-3-yl)methyl)-2,2-dimethyl-2,3-dihydrobenzofuran-5-carboxamide], the negative logarithm of the IC50 (pIC50) is less than 6.00.

`Cc1cc(C)c(CNC(=O)c2cc(F)c3c(c2)CC(C)(C)O3)c(=O)[nH]1` [Example 4, N-((4,6-Dimethyl-2-oxo-1,2-dihydropyridin-3-yl)methyl)-7-fluoro-2,2-dimethyl-2,3-dihydrobenzofuran-5-carboxamide]: the pIC50 is less than 6.00.

`Cc1cc(C)c(CNC(=O)c2cc(C)c3c(c2)CC(C)(C)O3)c(=O)[nH]1` [Example 6, N-((4,6-Dimethyl-2-oxo-1,2-dihydropyridin-3-yl)methyl)-2,2,7-trimethyl-2,3-dihydrobenzofuran-5-carboxamide]: the negative logarithm of the IC50 (pIC50) was less than 6.00.

Consider `Cc1cc(C)c(CNC(=O)c2cc(Br)c3c(c2C)CC(C)(C)O3)c(=O)[nH]1` [Example 7, 7-Bromo-N-((4,6-dimethyl-2-oxo-1,2-dihydropyridin-3-yl)methyl)-2,2,4-trimethyl-2,3-dihydrobenzofuran-5-carboxamide], for which the pIC50 is 6.00 to 6.30.

As for `Cc1cc(C)c(CNC(=O)c2ccc3c(c2C)CC(C)(C)O3)c(=O)[nH]1` [Example 8, N-((4,6-Dimethyl-2-oxo-1,2-dihydropyridin-3-yl)methyl)-2,2,4-trimethyl-2,3-dihydrobenzofuran-5-carboxamide], the negative logarithm of the IC50 (pIC50) is less than 6.00.

With `Cc1cc(C)c(CNC(=O)c2cc(C)c3c(c2C)CC(C)(C)O3)c(=O)[nH]1` [Example 9, N-((4,6-Dimethyl-2-oxo-1,2-dihydropyridin-3-yl)methyl)-2,2,4,7-tetramethyl-2,3-dihydrobenzofuran-5-carboxamide], the pIC50 is less than 6.00.

Consider `Cc1cc(C)c(CNC(=O)c2cc3c(c(-c4ccc(CN5CCOCC5)cc4)c2)OC(C)(C)C3)c(=O)[nH]1` [Example 10, N-((4,6-Dimethyl-2-oxo-1,2-dihydropyridin-3-yl)methyl)-2,2-dimethyl-7-(4-(morpholinomethyl)phenyl)-2,3-dihydrobenzofuran-5-carboxamide], for which the pIC50 is less than 6.00.

`Cc1cc(C)c(CNC(=O)c2cc3c(c(-c4ccc(N5CCNCC5)nc4)c2)OC(C)(C)C3)c(=O)[nH]1` [Example 11, N-((4,6-Dimethyl-2-oxo-1,2-dihydropyridin-3-yl)methyl)-2,2-dimethyl-7-(6-(piperazin-1-yl)pyridin-3-yl)-2,3-dihydrobenzofuran-5-carboxamide]: the negative logarithm of the IC50 (pIC50) is more than 6.30.

On to `Cc1cc(C)c(CNC(=O)c2cc3c(c(-c4ccc(N5CCOCC5)nc4)c2)OC(C)(C)C3)c(=O)[nH]1` [Example 12, N-((4,6-Dimethyl-2-oxo-1,2-dihydropyridin-3-yl)methyl)-2,2-dimethyl-7-(6-morpholinopyridin-3-yl)-2,3-dihydrobenzofuran-5-carboxamide], for which the pIC50 was more than 6.30.

For `Cc1cc(C)c(CNC(=O)c2cc3c(c(-c4cnc5ccccc5c4)c2)OC(C)(C)C3)c(=O)[nH]1` [Example 13, N-((4,6-Dimethyl-2-oxo-1,2-dihydropyridin-3-yl)methyl)-2,2-dimethyl-7-(quinolin-3-yl)-2,3-dihydrobenzofuran-5-carboxamide], the pIC50 is less than 6.00.

For the molecule `COc1ccc(-c2cc(C(=O)NCc3c(C)cc(C)[nH]c3=O)cc3c2OC(C)(C)C3)cn1` [Example 14, N-((4,6-Dimethyl-2-oxo-1,2-dihydropyridin-3-yl)methyl)-7-(6-methoxypyridin-3-yl)-2,2-dimethyl-2,3-dihydrobenzofuran-5-carboxamide], the pIC50 was 6.00 to 6.30.

As to `Cc1cc(C)c(CNC(=O)c2cc(/C=C/c3ccccc3)c3c(c2)CC(C)(C)O3)c(=O)[nH]1` [Example 15, (E)-N-((4,6-Dimethyl-2-oxo-1,2-dihydropyridin-3-yl)methyl)-2,2-dimethyl-7-styryl-2,3-dihydrobenzofuran-5-carboxamide], the pIC50 is less than 6.00.

With `Cc1cc(C)c(CNC(=O)c2cc3c(c(-c4ccc(C(=O)N5CCN(C)CC5)cc4)c2)OC(C)(C)C3)c(=O)[nH]1` [Example 16, N-((4,6-Dimethyl-2-oxo-1,2-dihydropyridin-3-yl)methyl)-2,2-dimethyl-7-(4-(4-methylpiperazine-1-carbonyl)phenyl)-2,3-dihydrobenzofuran-5-carboxamide], the pIC50 was less than 6.00.

With `Cc1cc(C)c(CNC(=O)c2cc3c(c(-c4cnc(N5CCN(C(=O)OC(C)(C)C)CC5)nc4)c2)OC(C)(C)C3)c(=O)[nH]1` [Example 17, t-Butyl 4-(5-(5-(((4,6-dimethyl-2-oxo-1,2-dihydropyridin-3-yl)methyl)carbamoyl)-2,2-dimethyl-2,3-dihydrobenzofuran-7-yl)pyrimidin-2-yl)piperazine-1-carboxylate], the pIC50 is more than 6.30.

Turning to `Cc1cc(C)c(CNC(=O)c2cc3c(c(-c4ccc(N5CCNCC5)cc4)c2)OC(C)(C)C3)c(=O)[nH]1` [Example 18, N-((4,6-Dimethyl-2-oxo-1,2-dihydropyridin-3-yl)methyl)-2,2-dimethyl-7-(4-(piperazin-1-yl)phenyl)-2,3-dihydrobenzofuran-5-carboxamide], the negative-log IC50 (pIC50) was more than 6.30.

Consider `Cc1cc(C)c(CNC(=O)c2cc3c(c(-c4ccc(CN5CCCCC5)cc4)c2)OC(C)(C)C3)c(=O)[nH]1` [Example 19, N-((4,6-Dimethyl-2-oxo-1,2-dihydropyridin-3-yl)methyl)-2,2-dimethyl-7-(4-(piperidin-1-ylmethyl)phenyl)-2,3-dihydrobenzofuran-5-carboxamide], for which the pIC50 was less than 6.00.

The pIC50 is −log10 of the IC50, conventionally taken in molar units.
